{
  "source": "patent US20050119301A1",
  "about": "“Treatment of restenosis” (priority 2001, published 2005)",
  "key": {"[1]": {"assay": "a-tocopheroxyl radical attenuating ability (TRAA) assay in micelles", "assay_type": "biochemical", "details": "for TRAA, HTAC Micelle (positive) / TRAA, SDS Micelle (negative): 10 μM, relative rate constant of a-tocopheroxyl radical decay with/without sample, large = active", "protocol": "The a-tocopheroxyl radical attenuating ability (TRAA) assay has been described in detail by Witting et al. (1997). Briefly, one hundred mM stock solutions of cetyltrimethyl ammonium chloride (HTAC) and sodium dodecyl sulphate (SDS) were prepared in phosphate buffer. Micellular dispersions of a-tocopherol were prepared by diluting an ethanolic solution of a-tocopherol (0.2 M) into micelles at a final vitamin concentration of […]. This resulting solution was sonicated for 15 sec at which time it was completely homogenous.\nAliquots of the a-tocopherol-containing micells were placed into the neck of an ESR flat cell […] and placed 0.5 m from a 125 W Osram HQL-Mercury fluorescent bulb used as a UV light source. To increase the light intensity, the frosted casing of the bulb was removed. Samples were irradiated for 3 min, followed by thorough mixing and subsequent transfer of the flat cell to the corresponding temperature-controlled Dewar insert in the ESR cavity, where the sample was allowed to equilibrate to 37° C. This procedure afforded a-tocopheroxyl radical (a-TO) between […] as estimated against a 10 mM TPDI nitroxide standard. ESR spectra were obtained at 9.41 GHz with modulation amplitude 1.0 G, microwave power […], and modulation frequency 12.5 kHz using a Bruker ESP 300 ESR spectrometer fitted with an X-band cavity.\nAfter accumulation of the T=0 min spectrum, the flat cell arrangement containing a-TO was removed from the ESR cavity and the solution was gently coaxed into the neck of the flat cell under positive pressure. The compound of choice was then added to give a final concentration of 10 mM and the treated sample was replaced in the cavity and allowed to equilibrate to standard conditions, and sampling was resumed. The time-dependent decay of ESR signal intensity for a-TO was measured both in the presence and absence of the added co-antioxidant (10 mM) using a sweep time of 20.5 sec, averaging the output from three successive sweeps at each time point, and averaging the results of three separate experiments.\nResults are expressed as the relative rate constant of decay of a-tocopheroxyl radicals in the presence of the test sample divided by the relative rate constant of decay of a-tocopheroxyl radicals in the absence of the test sample. TRAA approaching unity is considered to have poor synergistic activity, whereas active compounds show large values because they eliminate the a-tocopheroxyl radicals immediately upon mixing. Ascorbate was used as a positive control."}, "[2]": {"test_system": "E-selectin", "assay": "Inhibition of E-selectin expression in activated HUVEC", "assay_type": "cell-based, human", "details": "pre-incubated 2 or 18 hours prior to TNF stimulation; Cpd. 8 especially at 10 μg/ml, Cpd. 12 especially at 1 and 10 μg/ml", "protocol": "The ability of isoflavone compounds and derivatives to inhibit the expression of E-selectin was measured by the protocol set out in Litwin et al. (1997) and is incorporated herein by reference.\nFIG. 18 provides comparative data on the ability of a number of isoflavone compounds to inhibit the expression of E-selectin conducted in accordance with the method of Litwin et al. The interaction of isoflavone metabolite Cpds. 8 and 12 on human umbilical vein endothelial cells, activated by […], was measured against the concentration of the compound. The cells were pre-incubated for either 2 or 18 hours prior to TNF stimulation. In comparison with a DMSO control, isoflavone Cpd. […] Isoflavone Cpd."}, "[3]": {"test_system": "IMA-derived human VSMC primed with PDGF BB", "assay": "PDGF BB-induced VSMC DNA synthesis, proliferation and cell number", "assay_type": "cell-based", "details": "for proliferation of IMA cells primed with PDGF BB (in words): Cpd. 7 at concentrations as low as 0.1 nM; for effect of ER antagonist ICI 182780 on the inhibitory effect: ICI 182780 100 nmol/L", "protocol": "Cell proliferation was induced by a variety of growth factors such as serum and platelet derived growth factor (PDGF).\nMedia was changed to LG serum-free DMEM and cells were treated with [^3H]-thymidine at 1 μCi/well for 3 hours. Cells were washed twice with ice cold Dulbecco's PBS. Next, ice cold 0.2M HClO4 (1 ml/well) was added and cells were incubated on ice for 30 min. Cells were then washed three times with 0.5 ml/well of ice cold 0.2M HClO4. Media (0.5 ml/well of 0.2 M NaOH) was replaced and cells were incubate at 37° C. After 1 hour, cells were treated with acetic acid (6%, 0.2 ml/well), transferred to scintillation vials with 3 ml scintillation liquid (Instagel) and counted for 2 min per vial.\nThe effect of Cpd. 5 and Cpd. 7 was tested further in IMA-derived human VSMC primed with PDGF BB instead of serum. […] (FIG. 12). This effect was equivalent to that observed with estradiol. Cpd.\nIn further experiments Cpd. […] 7 at 100 nmol/L), indicating ER-mediation. […] 7 (1-100 nmol/L)."}, "[4]": {"test_system": "C57/B16 mice", "assay": "Mouse model of neointimal hyperplasia after mechanical endothelial damage", "assay_type": "in vivo", "details": "for effect on neointimal proliferation (in words) / neointimal proliferation, intimal thickness: 4 weeks after surgery; for neointimal proliferation, intimal thickness: in chow, surgery only 50±5%, no surgery 5±1%", "from_the_text": "The key feature of atherosclerosis in humans is vascular smooth muscle cell (VSMC) migration from the arterial media to the intima, followed by proliferation within the intima. The animal model of atherosclerosis used in this experiment aimed to induce VSMC migration and neointimal proliferation by mechanical damage to the endothelium. A probe was introduced into the femoral artery of the mouse and was passed through the iliac artery to the bifurcation of the aorta. The probe was then withdrawn and the femoral artery ligated to prevent haemorrhage. Colateral circulation prevents any limb-associated ischaemia. Neointimal proliferation occurred in the iliac artery over the following 4 weeks.\nProliferation was enhanced by feeding the mouse cholesterol during this time (commencing one week before surgery). At four weeks, the mice were sacrificed and the iliac vessels on both sides are harvested (the non-operated vessel was used as a control). Neointimal proliferation is expressed as the ratio of the intimal area to the intimal plus media area.\nAtherosclerosis was induced in the femoral artery of each mouse by mechanically removing the endothelium using a probe. The ability of isoflavone compounds to inhibit the atherosclerotic response was assessed by comparing treatment and placebo groups. C57/B16 mice (8-10 week old male) were anaesthetized, and the right femoral artery was de-endothilialized using a dissection microscope. These mice were also fed with a 2% cholesterol diet to enhance the progression of the disease. The mice were sacrificed at week 4. Their treated (right) and control (left) arteries were both collected and fixed in formalin for histopathological evaluation.\nThe mice were fed a diet of 2% cholesterol mixed with normal mouse chow for a week prior to surgery. The treatment groups were fed the chow with Cpd. 5 or Cpd. 12 or Cpds. 5+12. Mice were anaesthetised with Avertin, and angioplasty of the femoral artery was performed. After surgery, the mice were moved onto a warm mat in a quiet, darkened area and their recovery closely monitored. They were housed in sterile cages with sterile bedding to avoid infection. The mice continued a diet of cholesterol mixed with normal mouse chow for the next 4 weeks. The mice were euthanased at 4 weeks postsurgery. Their femoral arteries were collected for pathological examination. Sections were evaluated by image analysis to determine the area of the various sections of the arterial wall, and the numbers of cells in each area. The primary parameter being evaluated was the increase in the intimal area, expressed as the ratio of the area of the intima versus the area of the intima plus media. The interval sections (every 50 μm, or every ten sections) were mounted and stained with H & E. The cross-sectional areas of the endothelium, intima and media were evaluated, using image analysis."}},
  "note": "Values joined by “and” are separate entries in the source; they are usually repeats but may differ in a detail not shown here. Equal entries are not always repeated. “Also recorded” adds a separate entry of the source.",
  "data": [
    {"smiles": "Oc1ccc(C2COc3cc(O)ccc3C2O)cc1", "note": "(centres unmarked) [Cpd. 8]", "values": [
      {"measurement": "TRAA, HTAC Micelle (positive)", "setting": "[1]", "value": 2.37},
      {"measurement": "TRAA, SDS Micelle (negative)", "setting": "[1]", "value": "1.26 and 1.58"},
      {"measurement": "inhibition of E-selectin expression (in words)", "setting": "[2]", "value": "very good inhibition of E-selectin expression"}
    ]},
    {"smiles": "Oc1ccc(C2COc3cc(O)ccc3C2O)cc1", "note": "(centres unmarked) [Cpd. 7]", "values": [
      {"measurement": "PDGF BB-induced increases in cell number", "setting": "[3]; 1-100 nmol/L", "value": "partly but significantly reduced"},
      {"measurement": "proliferation of IMA cells primed with PDGF BB (in words)", "setting": "[3]", "value": "inhibited proliferation"},
      {"measurement": "inhibition at 0.001 µM", "setting": "[3]; Homo sapiens, VSMC, 3 h, 1 nmol/L, read-out: inhibition of PDGF BB-induced DNA synthesis ([3H]-thymidine incorporation)", "value": 10, "unit": "%"},
      {"measurement": "inhibition at 0.01 µM", "setting": "[3]; Homo sapiens, VSMC, 3 h, 10 nmol/L, read-out: inhibition of PDGF BB-induced DNA synthesis ([3H]-thymidine incorporation)", "value": 17, "unit": "%"},
      {"measurement": "inhibition at 0.1 µM", "setting": "[3]; Homo sapiens, VSMC, 3 h, 100 nmol/L, read-out: inhibition of PDGF BB-induced DNA synthesis ([3H]-thymidine incorporation)", "value": 17, "unit": "%"},
      {"measurement": "effect of ER antagonist ICI 182780 on the inhibitory effect", "setting": "[3]; compound at 100 nmol/L", "value": "partly abolished"},
      {"measurement": "effect of ER antagonist ICI 182780 on the inhibitory effect", "setting": "[3]; compound at 1-10 nmol/L", "value": "completely abolished"},
      {"measurement": "TRAA, HTAC Micelle (positive)", "setting": "[1]", "value": "1.4 ± 0.5"},
      {"measurement": "TRAA, SDS Micelle (negative)", "setting": "[1]", "value": "1.9 ± 0.2"}
    ]},
    {"smiles": "O=C1c2ccc(O)cc2OCC1c1ccc(O)cc1", "note": "(centres unmarked) [Cpd. 5]", "values": [
      {"measurement": "proliferation of IMA cells primed with PDGF BB (in words)", "setting": "[3]", "value": "no observed effect on cellular proliferation"},
      {"measurement": "reduction of neointimal area", "setting": "[4]; 4 weeks", "value": "approximately 50%"},
      {"measurement": "effect on neointimal proliferation (in words)", "setting": "[4]", "value": "significantly reduced"},
      {"measurement": "neointimal proliferation, intimal thickness", "setting": "[4]", "value": "30±6", "unit": "%"},
      {"measurement": "TRAA, HTAC Micelle (positive)", "setting": "[1]", "value": "5.3 and 5.4"}
    ]},
    {"smiles": "Oc1ccc(C2=Cc3ccc(O)cc3OC2)cc1", "note": "[Cpd. 12]", "values": [
      {"measurement": "effect on neointimal proliferation (in words)", "setting": "[4]", "value": "no detectable effect; also recorded: no appreciable effect on neointimal proliferation"},
      {"measurement": "neointimal proliferation, intimal thickness", "setting": "[4]", "value": "50±29", "unit": "%"},
      {"measurement": "elimination of a-tocopheroxyl radicals (in words)", "setting": "[1]", "value": "induced high rate of decay and was active at eliminating a-tocopheroxyl radicals"},
      {"measurement": "TRAA, HTAC Micelle (positive)", "setting": "[1]", "value": "26.77 and 25.70"},
      {"measurement": "TRAA, SDS Micelle (negative)", "setting": "[1]", "value": "Almost immediate"},
      {"measurement": "inhibition of E-selectin expression (in words)", "setting": "[2]", "value": "excellent inhibition of E-selectin expression"}
    ]}
  ]
}
